Data from patent US20220387397A1, “COMPOUNDS AND COMPOSITIONS FOR TREATING CONDITIONS ASSOCIATED WITH NLRP ACTIVITY” (Novartis AG, priority 2018, published 2022).
Each block holds one molecule with its values, some of them ahead of it.

System: IL-1β production in PMA-differentiated THP-1 cells
Assay: IL-1β production in PMA-differentiated THP-1 cells stimulated with gramicidin (hTHP-1 assay, 2% bovine serum)
Format: cell-based, human
Conditions: hTHP-1 assay containing 2% bovine serum
Experimental: The following protocols are suitable for testing the activity of the compounds dislcosed herein. Bioassay 1:
IL-1β Production in PMA-Differentiated THP-1 Cells Stimulated with Gramicidin.
Cell culture-THP-1 cells were purchased from the American Type Culture Collection and sub-cultured according to instructions from the supplier. Prior to experiments, cells were cultured in RPMI 1640 containing 10% heat inactivated FBS, penicillin (100 units/ml) and streptomycin ([…]), and maintained in log phase prior to experimental setup. Prior to the experiment THP-1 were treated with PMA (Phorbol 12-myristate 13-acetate) ([…]) for 24 hours. The day of the experiment the media was removed and attaching cells were treated with trypsin for 2 minutes, cells were then collected, washed with PBS (phosphate buffer saline), spin down, resuspended in 2% heat inactivated FBS with RPMI at a concentration of 1×10^6 cells/ml, and 100 ul was plated in a 96 well plate. Cells were incubated with compounds for 1 hours and then stimulated with Gramicidin (5 μM) (Enzo) for 2 hours. Cell free supernatant was collected and the production of […] was evaluated by ELISA. Compounds were dissolved in dimethyl sulfoxide (DMSO) and added to the culture medium to achieve desired concentration (e.g. 100, 30, 10, 3, 1, 0.3 or 0.1 μM). A vehicle only control was run concurrently with each experiment. Final DMSO concentration was 1%.
THP-1 cells were purchased from the American Type Culture Collection and sub-cultured according to instructions from the supplier. Prior to experiments, cells were cultured in complete RPMI 1640 (containing 10% heat inactivated FBS, penicillin (100 units/ml) and streptomycin ([…])), and maintained in log phase prior to experimental setup. Prior to the experiment THP-1 were treated with PMA (Phorbol 12-myristate 13-acetate) (20 ng/ml) for 16-18 hours. On the day of the experiment the media was removed and adherent cells were detached with trypsin for 5 minutes. Cells were then harvested, washed with complete RPMI 1640, spun down, resuspended in RPMI 1640 (containing 2% heat inactivated FBS, penicillin (100 units/ml) and streptomycin ([…]). The cells were plated in a 384-well plate at a density of 50,000 cells/well (final assay volume […]). Compounds were dissolved in dimethyl sulfoxide (DMSO) and added to the culture medium to achieve desired concentration (e.g. 100, 33, 11, 3.7, 1.2, 0.41, 0.14, 0.046, 0.015, 0.0051, […]). Cells were incubated with compounds for 1 hour and then stimulated with gramicidin (5 μM) (Enzo) for 2 hours. Cell free supernatant was collected and the production of IL-1 was evaluated by HTRF (cisbio). A vehicle only control was run concurrently with each experiment. Final DMSO concentration was 0.38%.
Compounds tested with protocols 1 and 2 provided IC50 values that are within the variability of the assay.
Tables 13 and 14 show the biological activity of compounds in hTHP-1 assay containing 2% bovine serum: <1 μM=“++++”; ≥1 and <5 μM=“+++”; ≥5 and <15 μM=“++”; ≥15 and <60 μM=“+”.

[1] = Homo sapiens, THP-1, Table 14, by Final Target Number
[2] = Homo sapiens, THP-1, Table 14, given as a numeric bound
[3] = Homo sapiens, THP-1, Table 13, by Example #

Molecule: CC(C)c1cc(C#N)c(F)c(C(C)C)c1CC(=O)NS(=O)(=O)c1cnc(C(C)(O)CO)s1 (centres unmarked) [Compound 401]
IC50 [1]: 1 to 5 µM

Molecule: CNC(=O)c1ccc(S(=O)(=O)NC(=O)Cc2c(C(C)C)cc(C#N)c(F)c2C(C)C)cc1O [Compound 402]
IC50 [1]: 15 to 60 µM

Molecule: CNS(=O)(=O)c1ccc(S(=O)(=O)NC(=O)Cc2c(C(C)C)cc(C#N)c(F)c2C(C)C)c(Cl)c1 [Compound 404]
IC50 [1]: < 1 µM

Molecule: CC(C)c1cc(C#N)c(F)c(C(C)C)c1CC(=O)NS(=O)(=O)c1cnc(C(C)(O)CO[C@@H]2O[C@H](CO)[C@@H](O)[C@H](O)[C@H]2O)s1 (some centres unmarked) [Compound 405]
IC50 [1]: 5 to 15 µM

Molecule: CC(C)c1cc(C#N)c(F)c(C(C)C)c1CC(=O)NS(=O)(=O)c1cnc(C(C)(C)O)nc1 [Compound 406]
IC50 [1]: 5 to 15 µM

Molecule: CC(C)c1cc(C#N)c(F)c(C(C)C)c1CC(=O)NS(=O)(=O)c1cccc(-n2cc(CNC(=O)OC(C)(C)C)nn2)c1 [Compound 407]
IC50 [1]: 15 to 60 µM

Molecule: CC(C)c1cc(C#N)c(F)c(C(C)C)c1CC(=O)NS(=O)(=O)c1cccc(NC(=O)CCc2cn(CCNC(=O)OC(C)(C)C)nn2)c1 [Compound 408]
IC50 [2]: > 30 µM

Molecule: CC(C)c1cc(C#N)cc(C(C)C)c1CC(=O)NS(=O)(=O)c1cnc(C(C)(C)O)nc1 [Compound 409]
IC50 [1]: 5 to 15 µM

Second part, the molecule after the results:

IC50 [2]: > 30 µM
Molecule: CC(C)c1cc(F)cc(C(C)C)c1CC(=O)NS(=O)(=O)c1ccc([C@@H](C)N(C)C(=O)CCc2cn(CCOCCOCCOCCNC(=O)CCCC[C@@H]3SC[C@@H]4NC(=O)N[C@@H]43)nn2)cc1 [Compound 410]

IC50 [2]: > 30 µM
Molecule: CC(C)c1cc(F)cc(C(C)C)c1CC(=O)NS(=O)(=O)c1ccc([C@H](C)N(C)C(=O)CCc2cn(CCOCCOCCOCCNC(=O)CCCC[C@H]3SC[C@@H]4NC(=O)N[C@@H]43)nn2)cc1 [Compound 411]

IC50 [2]: > 30 µM
Molecule: CC(C)c1cc(C2(C(F)(F)F)N=N2)cc(C(C)C)c1CC(=O)NS(=O)(=O)c1ccc(CN(C)C(=O)CCCN(C)C(=O)CCOCCOCCOCCOCCNC(=O)CCCC[C@H]2SC[C@@H]3NC(=O)N[C@@H]32)cc1 [Compound 412]

IC50 [2]: > 30 µM
Molecule: CC(C)c1cc(F)cc(C(C)C)c1CC(=O)NS(=O)(=O)c1ccc(C(C)N(C)C(=O)CCc2cn(CCOCCOCCOCCNC(=O)CCCC[C@@H]3SC[C@@H]4NC(=O)N[C@@H]43)nn2)cc1 (some centres unmarked) [Compound 415]

IC50 [1]: < 1 µM
Molecule: CC(C)c1cc(C#N)c(F)c(C(C)C)c1CC(=O)NS(=O)(=O)c1cc(C(C)(C)O)no1 [Compound 416]

IC50 [3]: 5 to 15 µM
Molecule: CC(C)(O)c1csc(S(=O)(=O)NC(=O)Cc2c3c(cc4c2CCC4)CCC3)c1 [Example 7, 2-(1,2,3,5,6,7-hexahydros-indacen-4-yl)-N-(4-(2-hydroxypropan-2-yl)thiophen-2-ylsulfonyl)acetamide]

IC50 (Table 13, by Example #): 1 to 5 µM
Molecule: CC(=O)c1ccc(F)c(S(=O)(=O)NC(=O)Cc2c(C(C)C)cc(F)cc2C(C)C)c1 [Example 55]

IC50 [3]: 5 to 15 µM
Molecule: CCc1cc(C(C)C)c(CC(=O)NS(=O)(=O)c2ccc(CN(C)C)cc2)c(C(C)C)c1 [Example 97, N-((4-((dimethylamino)methyl)phenyl)sulfonyl)-2-(4-ethyl-2,6-diisopropylphenyl)acetamide]

IC50 (Table 13, by Example #): 15 to 60 µM
Molecule: N-(4-pentafluorophenylsulfonyl)-2-(4-fluoro-2,6-diisopropylphenyl)acetamide [Example 39]
